The source of these data is patent publication US10493027B2, “Chemically stable compositions of a pharmaceutical active agent in a multi- chambered delivery system for mucosal delivery” (MUCODEL PHARMA LLC, priority 2014, dated 2019).

For data set [1] the following is noted: cited from earlier work.
Data set [2] in a line: Nalbuphine bioavailability study (Example 14).
The conditions of data set [3]: cited from earlier work. The source holds these as a separate data set.
The conditions of data set [4]: cited from earlier work. This is another data set of the same source.
The conditions of data set [5]: cited from earlier work. The source holds these as a separate data set.
The conditions of data set [6]: orally delivered, mice; cited from earlier work.
For data set [7] the following is noted: cited from earlier work. This is another data set of the same source.

Values after ≈ are worked out from the molar mass of the structure shown. Counter-ions that a name gives are not always drawn. Like-named read-outs stand apart in the source and are kept apart here.

For `C=CCN1CC[C@]23c4c5ccc(O)c4O[C@H]2C(=O)CC[C@@]3(O)[C@H]1C5` [Naloxone HCl, naloxone hydrochloride], the values for the solubility in water in data set [1] (US EPA EPI Suite reference) and in data set [1] (room temperature) were 73 mg/mL and “greater than 70 mg/g”, respectively.
Take `Oc1ccc2c3c1O[C@H]1[C@@H](O)CC[C@@]4(O)[C@@H](C2)N(CC2CCC2)CC[C@]314` [nalbuphine hydrochloride]: in data set [2] (human, plasma, other: intranasal, 16.8 mg), the bioavailability was over 200%. For the same compound, in data set [3] (oral), the “bioavailability when delivered orally” value is “approximately 12%”.
Take `C=CCN1CC[C@]23c4c5ccc(O)c4O[C@H]2C(=O)CC[C@@]3(O)[C@H]1C5` [Naloxone]: the pKa entry in data set [4] is listed as “around 7.9”. Moreover, the solubility in water in data set [1] (Example 5) was 1.4 mg/mL (≈ 4.28 mM). Besides, the “mean absolute bioavailability of oral Naloxone” value in data set [5] (healthy subjects, doses 5 mg to 120 mg) was “less than or equal to 2%”. Also, the mean absolute bioavailability in data set [5] (oral PR tablets, 5 mg dose, based on AUCt) is 0.9%. Further, in data set [6], the bioavailability is reported as 1%.
For the compound `Oc1ccc2c3c1O[C@H]1[C@@H](O)CC[C@@]4(O)[C@@H](C2)N(CC2CCC2)CC[C@]314` [Nalbuphine], the “peak plasma achieved faster than intraoral administration” value in data set [2] (intranasal) is recorded as about 1000%. Also, in data set [2] (intranasal, equivalent dose), the “maximum drug plasma concentration higher than conventional oral formulation” value is given as about 500%. In addition, the t1/2 in data set [3] (i.v., 20 mg) is listed as 222 min. In data set [3] (p.o., 60 mg), the t1/2 was 279 min and the tmax is 46.6 min. For the same compound, the solubility in water entry in data set [1] (Example 14 text) is recorded as “about 35 mg/g”.
As for `O=C1CC[C@@]2(O)[C@H]3Cc4ccc(O)c5c4[C@@]2(CCN3CC2CC2)[C@H]1O5` [Naltrexone], the results for the “increase of permeation (factor)” value in data set [7] (pH of NTX increased from 6.8 to 7.5) and in data set [7] (pH of NTX increased from 6.8 to 8.5) were 1.6 and 4.4, respectively. The permeation enhancement in data set [7] (with Brij 58, reconstituted human buccal mucosa) was 7.7.
